Results: patent publication US11584749B2, “Phosphor-tetrazine compound and use thereof” (Spark Biopharma, Inc., priority 2018, dated 2023)

How the values were obtained:
[1] = Change in emission properties (quantum yield, excitation/emission maxima, fluorescence amplification) before and after reaction with TCO; assay type: physicochemical; conditions: for fluorescence amplification rate (on/off): before and after reaction with TCO; for fluorescence signal amplification efficiency after the reaction with TCO: long wavelength range, diethylamino group at R1
Description: (§1) In this test, the absorption spectrum was measured with a UV-VIS spectrophotometer UV-1650PC (Shimadzu), and the emission spectrum and motion data were measured using a Cary Eclipse Fluorescence spectrophotometer (Varian Associates), and the absolute quantum yield was measured with a QE-2000 (Otsuka Electronics).
The emission spectrum was compared when the maximum fluorescence intensity was reached before and after the reaction of the compound and TCO, and changes in fluorescence of the compounds of Examples 1 to 4 and Comparative Examples 1 to 4 were observed, and the results are shown in Table 1 below.
The emission spectrum was compared when the maximum fluorescence intensity was reached before and after the reaction of the compound and TCO, and changes in fluorescence of the compounds of Examples 1 and 4 and Comparative Examples 3 to 6 were observed, and the results are shown in Table 2 below, FIGS. 3 and 4.

[2] = Second rate constant of the reaction with TCO; assay type: physicochemical
Description: as §1

[3] = tested on: microtubule (HeLa human cervical cancer cells); assay: Fluorescence bio-imaging of microtubule in fixed HeLa cells pre-treated with Docetaxel-TCO conjugate; assay type: cell-based
Description: (§2) The fluorescence imaging test was performed using a DeltaVision Elite imaging system of GE Healthcare, and an Olympus IX-71 microscope was used.
Docetaxel-TCO conjugate (Dox-TCO) was used for fluorescence bio-imaging of microtubule. HeLa human cervical cancer cells were fixed, and cultured with Dox-TCO for 1 hour, and then washed with PBS.

[4] = tested on: mitochondria (HeLa cells); assay: Fluorescence imaging of mitochondria in living HeLa cells pre-treated with TPP-TCO; assay type: cell-based, human
Description: as §2
In order to confirm the fluorescence imaging of mitochondria in living cells, it was tested by the following method.
HeLa cells were incubated for 1 hour in the presence or absence of triphenylphosphonium (TPP)-TCO, and then HeLa cells were washed and treated with the compound of Example 5 or Example 6.
In addition, in order to confirm the selectivity of TPP-TCO and Example 5, and TPP-TCO and Example 6 for mitochondria, HeLa cells were treated with MitoTracker Deep Red, a mitochondria coloring dye, As a result, it was observed that the position of the fluorescence signal of MitoTracker Deep Red was consistent with that of Example 5 or Example 6.

Compound | λem maximum emission wavelength ([1]; Table 1) | λex largest excitation maxima at a given maximum emission wavelength ([1]; Table 1) | Φon absolute quantum yield after the reaction with TCO ([1]; Table 1) | fluorescence amplification rate (on/off) ([1]; Table 1) | Φoff absolute quantum yield before the reaction with TCO ([1]; Table 1) | K2 second rate constant value ([2]; Table 1, measured at 20° C.) | λem maximum emission wavelength ([1]; Table 2) | λex largest excitation maxima at a given maximum emission wavelength ([1]; Table 2) | Φon absolute quantum yield after the reaction with TCO ([1]; Table 2) | fluorescence amplification rate (on/off) ([1]; Table 2) | Φoff absolute quantum yield before the reaction with TCO ([1]; Table 2) | K2 second rate constant value ([2]; Table 2, measured at 20° C.) | fluorescence signal amplification efficiency after the reaction with TCO ([1]; Table 2) | fluorescence signal on addition to cells ([3]; fixed HeLa cells cultured with Dox-TCO for 1 hour, washed with PBS) | specificity of staining, immunofluorescence with α-tubulin antibody ([3]; fixed HeLa cells, Dox-TCO) | position of fluorescence signal versus MitoTracker Deep Red ([4]; HeLa cells, TPP-TCO and compound) | fluorescence mitochondria image ([4]; living HeLa cells treated with TPP-TCO for 1 hour, then compound) | fluorescence expression intensity in the extracellular region ([4]; living HeLa cells treated with TPP-TCO, then compound)
CC(=O)c1ccn2c3c(c(-c4ccc(-c5nnc(C)nn5)cc4)c2c1)CN(CCCNC(=O)OC(C)(C)C)C3=O [Comparative Example 1, tert-butyl (3-(7-acetyl-9-(4-(6-methyl-1,2,4,5-tetrazin-3-yl)phenyl)-3-oxo-1,3-dihydro-2H-pyrrolo[3,4-b]indolizin-2-yl)propyl)carbamate] | 532 nm | 416 nm | 0.168 | 20 | 0.011 | 21 m^−1s^−1 |  |  |  |  |  |  |  |  |  |  |  | 
CC(=O)c1ccn2c3c(c(-c4ccc(C(=O)NCc5ccc(-c6nnc(C)nn6)cc5)cc4)c2c1)CN(CCCNC(=O)OC(C)(C)C)C3=O [Comparative Example 2, tert-butyl (3-(7-acetyl-9-(4-((4-(6-methyl-1,2,4,5-tetrazin-3-yl)benzyl)carbamoyl)phenyl)-3-oxo-1,3-dihydro-2H-pyrrolo[3,4-b]indolizin-2-yl)propyl)carbamate] | 522 nm | 401 nm | 0.583 | 14 | 0.042 | 15 m^−1s^−1 |  |  |  |  |  |  |  |  |  |  |  | 
Cc1nnc(-c2ccc(CNC(=O)c3ccn4c5c(c(-c6ccccc6)c4c3)CN(CCCNC(=O)OC(C)(C)C)C5=O)cc2)nn1 [Comparative Example 3, tert-butyl (3-(7-((4-(6-methyl-1,2,4,5-tetrazin-3-yl)benzyl)carbamoyl)-3-oxo-9-phenyl-1,3-dihydro-2H-pyrrolo[3,4-b]indolizin-2-yl)propyl)carbamate] | 493 nm | 375 nm | 0.616 | 67 | 0.012 | 15 m^−1s^−1 | 493 nm | 375 nm | 0.616 | 67 | 0.012 | 15 m^−1s^−1 |  |  |  |  |  | 
CC(=O)c1ccn2c3c(c(-c4ccccc4)c2c1)CN(CCCNC(=O)CCC(=O)NCc1ccc(-c2nnc(C)nn2)cc1)C3=O [Comparative Example 4, N^1-(3-(7-acetyl-3-oxo-9-phenyl-1,3-dihydro-2H-pyrrolo[3,4-b]indolizin-2-yl)propyl)-N^4-(4-(6-methyl-1,2,4,5-tetrazin-3-yl)benzyl)succinimide] | 530 nm | 401 nm | 0.325 | 24 | 0.017 | 8.5 m^−1s^−1 | 530 nm | 401 nm | 0.325 | 24 | 0.017 | 8.5 m^−1s^−1 |  |  |  |  |  | 
CCN(CC)c1ccc(-c2c3c(n4ccc(C(=O)NCc5ccc(-c6nnc(C)nn6)cc5)cc24)C(=O)N(CCCNC(=O)OC(C)(C)C)C3)cc1 [Comparative Example 5, tert-butyl (3-(9-(4-(diethylamino)phenyl)-7-((4-(6-methyl-1,2,4,5-tetrazin-3-yl)benzyl)carbamoyl)-3-oxo-1,3-dihydro-2H-pyrrolo[3,4-b]indolizin-2-yl)propyl)carbamate] |  |  |  |  |  |  | 608 nm | 418 nm | 0.016 | 30 | 0.005 | 15 m^−1s^−1 | significantly reduced |  |  |  |  | 
CCN(CC)c1ccc(-c2c3c(n4ccc(C(C)=O)cc24)C(=O)N(CCCNC(=O)CCC(=O)NCc2ccc(-c4nnc(C)nn4)cc2)C3)cc1 [Comparative Example 6, N^1-(3-(7-acetyl-9-(4-(diethylamino)phenyl)-3-oxo-1,3-dihydro-2H-pyrrolo[3,4-b]indolizin-2-yl)propyl)-N^4-(4-(6-methyl-1,2,4,5-tetrazin-3-yl)benzyl)succinimide] |  |  |  |  |  |  | 625 nm | 438 nm | 0.028 | 3 | 0.013 | 1.2 m^−1s^−1 | significantly reduced |  |  |  |  | 
Cc1nnc(-c2ccn3c4c(c(-c5ccccc5)c3c2)CN(CCCNC(=O)OC(C)(C)C)C4=O)nn1 [Example 1, tert-butyl (3-(7-(6-methyl-1,2,4,5-tetrazin-3-yl)-3-oxo-9-phenyl-1,3-dihydro-2H-pyrrolo[3,4-b]indolizin-2-yl)propyl)carbamate] | 484 nm | 375 nm | 0.683 | >1,000 | 0.002 | 24 m^−1s^−1 | 484 nm | 375 nm | 0.683 | >1,000 | 0.002 | 24 m^−1s^−1 | excellent |  |  |  |  | 
COc1ccc(-c2c3c(n4ccc(-c5nnc(C)nn5)cc24)C(=O)N(CCCNC(=O)OC(C)(C)C)C3)cc1 [Example 2, tert-butyl (3-(9-(4-methoxyphenyl)-7-(6-methyl-1,2,4,5-tetrazin-3-yl)-3-oxo-1,3-dihydro-2H-pyrrolo[3,4-b]indolizin-2-yl)propyl)carbamate] | 505 nm | 383 nm | 0.485 | >1,000 | 0.001 | 23 m^−1s^−1 |  |  |  |  |  |  |  |  |  |  |  | 
Cc1nnc(-c2ccn3c4c(c(-c5ccc(N)cc5)c3c2)CN(CCCNC(=O)OC(C)(C)C)C4=O)nn1 [Example 3, tert-butyl (3-(9-(4-aminophenyl)-7-(6-methyl-1,2,4,5-tetrazin-3-yl)-3-oxo-1,3-dihydro-2H-pyrrolo[3,4-b]indolizin-2-yl)propyl)carbamate] | 562 nm | 390 nm | 0.064 | >600 | 0.002 | 22 m^−1s^−1 |  |  |  |  |  |  |  |  |  |  |  | 
CCN(CC)c1ccc(-c2c3c(n4ccc(-c5nnc(C)nn5)cc24)C(=O)N(CCCNC(=O)OC(C)(C)C)C3)cc1 [Example 4, tert-butyl (3-(9-(4-(diethylamino)phenyl)-7-(6-methyl-1,2,4,5-tetrazin-3-yl)-3-oxo-1,3-dihydro-2H-pyrrolo[3,4-b]indolizin-2-yl)propyl)carbamate] | 581 nm | 401 nm | 0.045 | >600 | 0.001 | 22 m^−1s^−1 | 581 nm | 401 nm | 0.045 | >600 | 0.001 | 22 m^−1s^−1 | excellent |  |  |  |  | 
Cc1nnc(-c2ccn3c4c(c(-c5ccccc5)c3c2)CN(CCCN2CCN(CCC(=O)O)CC2)C4=O)nn1 [Example 5, 3-(4-(3-(7-(6-methyl-1,2,4,5-tetrazin-3-yl)-3-oxo-9-phenyl-1,3-dihydro-2H-pyrrolo[3,4-b]indolizin-2-yl)propyl)piperazin-1-yl)propanoic acid] |  |  |  |  |  |  |  |  |  |  |  |  |  | a bright fluorescence signal was generated | microtubule specific staining | consistent | a clear fluorescence mitochondria image was observed | 0
